Marks after values point to notes of the source that are not given here. No end group written: not given here.
Assays:
Assay type in all cases: biochemical
[1] = Hydroxyl radical scavenging activity (1,10-phenanthroline/FeSO4/H2O2); conditions: isolated APs; 37 °C, 60 min, absorbance 536 nm; mean ± SD, n = 3
Method: (§1) The DPPH radical, hydroxyl radical, superoxide anion radical, and ABTS cation radical scavenging activities were measured according to the previous methods. The results were expressed as a half elimination ratio (EC50) defined as the concentration by which a sample caused a 50% decrease of the initial concentration of DPPH radical, hydroxyl radical, superoxide anion radical, and ABTS cation radical, respectively, and the calculation method of EC50 was according to linear relationship of radical scavenging rates and concentrations of samples [6, 26].
First, 1.0 mL of a 1.87 mM 1,10-phenanthroline solution and 2.0 mL of the sample were added to a screw-capped tube and mixed. Then, 1.0 mL of a FeSO4·7H2O solution (1.87 mM) was added to the mixture. The reaction was initiated by adding 1.0 mL of H2O2 (0.03%, v/v). After being incubated at 37 °C for 60 min in a water bath, the absorbance of the reaction mixture was measured at 536 nm against a reagent blank. […] The hydroxyl radical scavenging activity was calculated using the following formula: Hydroxyl radical scavenging activity (%) = [(As − An)/(Ab − An)] × 100% (3) where As, An, and Ab are the absorbance values determined at 536 nm of the sample, the negative control, and the blank after the reaction, respectively.

[2] = ABTS cation radical scavenging activity; conditions: isolated APs; 5 mM PBS pH 7.4, 10 min, absorbance 734 nm; mean ± SD, n = 3
Method: as §1
The ABTS radical cation was generated by mixing ABTS stock solution (7 mM) with potassium persulphate (2.45 mM). The mixture was left in the dark at room temperature for 16 h. The ABTS radical solution was diluted in 5 mM PBS pH 7.4, to an absorbance of 0.70 ± 0.02 at 734 nm. One milliliter of diluted ABTS radical solution was mixed with one milliliter of different concentrations of samples. 10 min later, the absorbance was measured at 734 nm against the corresponding blank. The ABTS scavenging activity of samples was calculated using the following equation: ABTS scavenging activity (%) = [(Acontrol − Asample)/Acontrol] × 100% (5) where Acontrol is the absorbance without sample and Asample is the absorbance with sample.

[3] = DPPH radical scavenging activity; conditions: isolated APs; 0.02% ethanolic DPPH; EC50 from linear relation of scavenging rate and concentration; mean ± SD, n = 3
Method: as §1
Two millilitres of samples consisting of DW and different concentrations of the analytes were placed in cuvettes, and 500 μL of an ethanolic solution of DPPH (0.02%) and 1.0 mL of ethanol were added. A control sample containing the DPPH solution without the sample was also prepared. In the blank, the DPPH solution was substituted with ethanol. The antioxidant activity of the sample was evaluated using the inhibition percentage of the DPPH radical with the following equation: DPPH radical scavenging activity (%) = (A0 + Ab − A)/A0 × 100% (2) where A is the absorbance rate of the sample, A0 is the control group absorbance, and Ab is the blank absorbance.

[4] = Superoxide anion radical scavenging activity (NBT/NADH/PMS); conditions: isolated APs; 25 °C, 5 min, absorbance 560 nm; mean ± SD, n = 3
Method: as §1
The superoxide anions were generated in 1 mL of nitrotetrazolium blue chloride (2.52 mM), 1 mL of nicotinamide adenine dinucleotide hydride (NADH) ([…]) and 1 mL of different sample concentrations. The reaction was initiated by adding 1 ml of phenazine methosulphate solution (120 μM) to the reaction mixture. The absorbance was measured at 560 nm against the corresponding blank after 5 min incubation at 25 °C. The superoxide anion radical scavenging capacity was calculated using the following equation: Superoxide anion radical scavenging activity (%) = [(Acontrol − Asample)/Acontrol] × 100% (4) where Acontrol is the absorbance without sample and Asample is the absorbance with sample.

Half Elimination Ratio (EC50) Hydroxyl Radical [1]: 1.54 ± 0.11 ^b mg/mL
Half Elimination Ratio (EC50) ABTS Cation Radical [2]: 2.56 ± 0.23 ^b mg/mL
Half Elimination Ratio (EC50) DPPH Radical [3]: 1.82 ± 0.16 ^c mg/mL
Half Elimination Ratio (EC50) Superoxide Anion Radical [4]: 2.49 ± 0.17 ^b mg/mL
Substance: WIDPDG [TGP-2, antioxidant peptide from blood cockle (T. granosa) protein hydrolysate]
